In PubChem BioAssay (NCI):
“And” between values parts separate entries of the source, which are not always exact repeats. Equal entries are not always repeated.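 48-hour exposure; five concentrations; linearly interpolated endpoints. GI50 = concentration required for 50% inhibition of growth. The concentration for full growth arrest is given as TGI.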

How the values were obtained:
Assay in all cases: NCI-60 cell line screen, 48 h
[1] = test system: 786-0 renal
[2] = test system: NCI-H460 lung
[3] = test system: NCI/ADR-RES ovarian
[4] = test system: OVCAR-3 ovarian
[5] = test system: OVCAR-4 ovarian
[6] = test system: OVCAR-5 ovarian
[7] = test system: PC-3 prostate
[8] = test system: SF-539 CNS
[9] = test system: SK-MEL-5 melanoma
[10] = test system: TK-10 renal

Row | SMILES | GI50 [1] | TGI [1] | GI50 [2] | TGI [2] | GI50 [3] | TGI [3] | GI50 [4] | TGI [4] | GI50 [5] | TGI [5] | GI50 [6] | TGI [6] | GI50 [7] | TGI [7] | GI50 [8] | TGI [8] | GI50 [9] | TGI [9] | GI50 [10] | TGI [10]
1 | CCCCCCN(C)Cc1ccc(OCCOc2ccc(CN(C)CCCCCC)cc2)cc1 | 1.44 µM | 2.8 µM | 1.35 µM | 2.99 µM | 1.38 µM | 3.16 µM | 1.36 µM | 2.91 µM | 1.17 µM | 2.74 µM | 1.46 µM | 4.03 µM | 1.24 µM | 2.8 µM | 1.37 µM | 2.92 µM | 1.36 µM | 2.66 µM | 1.29 µM | 2.6 µM
2 | C[C@@H]1CC[C@@H]2[C@@H](C)C[C@H]3[C@@H]4C(C)(C)OC(=O)[C@]4(C)C(=O)[C@@]23C1=O | – | > 100 µM | – | > 100 µM | – | > 100 µM | 75.9 µM | > 100 µM | – | > 100 µM | – | > 100 µM | > 100 µM | > 100 µM | – | > 100 µM | – | > 100 µM | – | > 100 µM
3 | CCOc1c(C#N)c2c(N)ncnc2n1C1OC(CO)C(O)C1O (stereo not drawn) | 3.76 µM | > 24.9 µM | 2.48 µM | > 100 µM | 4.51 µM | > 100 µM | 2.53 µM | 7.09 µM | 3.75 µM | > 57.2 µM | 7.02 µM | > 100 µM | 2.77 µM | > 31.7 µM | 4.06 µM | 50 µM | 3.79 µM | 16.6 µM | 3.05 µM | > 28 µM
4 | COc1cc(-c2ccc(NC(=O)NC3CC3)c(OC)c2)ccc1NC(=O)NC1CC1 | 29.5 µM | > 100 µM | 1.51 µM | 15.7 µM | > 43.6 µM | > 100 µM | 25.7 µM | > 100 µM | > 100 µM | > 100 µM | > 100 µM | > 100 µM | 9.01 µM | > 100 µM | 4.86 µM | 99.8 µM | 4.84 µM | > 100 µM | 13.9 µM | > 100 µM
5 | C1CCN2CC3CCCN4CCCC(C2C1)C34 (stereo not drawn) | – | > 100 µM | – | > 100 µM | – | > 100 µM | – | > 100 µM | > 100 µM and 24.7 µM | > 100 µM | – | > 100 µM | – | > 100 µM | – | > 100 µM | – | > 100 µM | – | > 100 µM
6 | O=C1C(=O)N(c2cccc(C(F)(F)F)c2)C(=O)C(=O)C1c1nc2ccccc2s1 | – | > 100 µM | – | > 100 µM | – | > 100 µM | – | > 100 µM | – | > 100 µM | – | > 100 µM | – | > 100 µM | – | > 100 µM | – | > 100 µM | – | > 100 µM
7 | NNC(=S)Nc1cccc(Cl)c1 | – | > 100 µM | – | > 100 µM | – | > 100 µM | – | 92.3 µM | – | > 100 µM | – | > 100 µM | – | > 100 µM | – | > 100 µM | – | > 100 µM | – | > 100 µM
8 | CC(C)(C)c1ccc(O)c(CN(Cc2cc(C(C)(C)C)ccc2O)C2CCCCC2)c1 | – | 29.8 µM | – | 31.5 µM | – | 42.1 µM | – | 34.9 µM | – | 50.3 µM | – | 34.1 µM | – | 46.8 µM | – | 31 µM | – | 28.4 µM | – | 32.4 µM
9 | CN1CCN(Cc2ccc(NC(=O)c3cncc(C#Cc4cnn5ccccc45)c3)cc2C(F)(F)F)CC1 | 1.1 µM | 2.26 µM | 0.402 µM | 1.98 µM | 1.4 µM | 5.51 µM | 1.43 µM | 3.62 µM | 0.445 µM | 2.95 µM | 1.12 µM | 5.09 µM | 1.01 µM | 4.19 µM | 0.518 µM | 1.25 µM | 0.902 µM | 1.72 µM | 1.61 µM | 4.13 µM
10 | COc1cc2ncn(-c3cc(OCc4ccccc4C(F)(F)F)c(C(C)=O)s3)c2cc1OC | > 25 µM | > 25 µM | > 25 µM | > 25 µM | > 25 µM | > 25 µM | > 25 µM | > 25 µM | > 25 µM | > 25 µM | > 25 µM | > 25 µM | > 25 µM | > 25 µM | > 25 µM | > 25 µM | > 25 µM | > 25 µM | > 25 µM | > 25 µM
11 | N#Cc1c(N)nc(N2CCSCC2)c(C#N)c1-c1ccc(O)cc1 | 13.5 µM | 30.4 µM | 13.4 µM | 29.5 µM | 20.6 µM | 67.1 µM | 17.5 µM | 44.8 µM | 18 µM | 67.6 µM | 16.1 µM | 50 µM | 19.8 µM | > 100 µM | 18 µM | 39 µM | 12.7 µM | 28 µM | 30.4 µM | > 100 µM
12 | O=C(Nc1cccc(Cl)c1)c1cc(N=Nc2ccc([N+](=O)[O-])cc2Cl)ccc1O | 2.93 µM | 8.27 µM | 2.74 µM | 7.92 µM | 2.27 µM | 5.93 µM | 1.06 µM | 4.38 µM | 2.67 µM | > 100 µM | 2.81 µM | 10.6 µM | 1.94 µM | 6.36 µM | 2.41 µM | 8.61 µM | 1.86 µM | 3.81 µM | 2.24 µM | 6.92 µM
13 | CC(C)CCC(=O)[C@@H](C)[C@H]1[C@@H](OC2OCC(O)C(O)C2NS(C)(=O)=O)C[C@H]2[C@@H]3CC=C4C[C@@H](O)CC[C@]4(C)[C@H]3CC[C@]12C (stereo partly drawn) | 0.181 µM | 0.93 µM | 1.42 µM | 4.86 µM | 9.82 µM | > 40 µM | 2.72 µM | 10.3 µM | 5.12 µM | 28.6 µM | 4.89 µM | 16.8 µM | 0.982 µM | 4.16 µM | 0.202 µM | 1.11 µM | 1.26 µM | 4.51 µM | 6.63 µM | 23.5 µM
14 | CC[C@]12C=CCN3CC[C@@]4(c5ccc(OC)cc5N(C)[C@H]4[C@@](O)(C(=O)OC)[C@@H]1OC(=O)CCC(=O)N[C@H](Cc1c[nH]c4ccccc14)C(=O)OC)[C@@H]32 | 3.08 µM | > 100 µM | 14.8 µM | 32.8 µM | 11.3 µM | 37.8 µM | 3.8 µM | 16.4 µM | 6.5 µM | 28.4 µM | 14.1 µM | 45 µM | 2.95 µM | 17 µM | 2.63 µM | 7.06 µM | 2.54 µM | 7.14 µM | 13.5 µM | 29.4 µM
15 | CO[C@@H]1[C@H]2[C@@H](C)c3ccoc3C[C@@H]2[C@@]2(C)CC[C@H](OC(=O)c3ccccc3)[C@](C)(C(=O)O)[C@]2(O)[C@@H]1OC(=O)c1ccccc1 | 15.8 µM | > 50 µM | 13.4 µM | > 50 µM | 11.7 µM | 35.3 µM | 5.17 µM | 15.9 µM | 22.1 µM | > 50 µM | 12 µM | 31.2 µM | 16.4 µM | > 50 µM | 8.81 µM | 16.5 µM | 7.21 µM | 13.7 µM | 14.3 µM | > 50 µM
16 | CCOC(=O)c1csc(NC(=O)COc2cccc(/C=C3\CSc4ccccc4C3=O)c2)n1 | 0.561 µM | 1.69 µM | 9.3 µM | 25 µM | 2.46 µM | 5.66 µM | 0.158 µM | 0.332 µM | 3.69 µM | 17.9 µM | 1.04 µM | 5.42 µM | 0.246 µM | 1.52 µM | 0.421 µM | 1.6 µM | 5.04 µM | 17.3 µM | 2.11 µM | 9.62 µM
17 | CC(=O)NC(CCCCN(Cc1ccccc1)C(=O)N(CCCl)N=O)C(=O)NCc1ccccc1 (stereo not drawn) | – | 24.9 µM | – | 42.9 µM | – | 34.3 µM | – | > 100 µM | – | > 100 µM | – | > 87.3 µM | – | > 100 µM | – | 28.5 µM | – | > 100 µM | – | 73.9 µM
